Like-named read-outs stand apart in the source and are kept apart here.
Assays:
NSD2 [1-1365] = NSD2 [1-1365] (Homo sapiens (Human), UniProt O96028); assay: LC-MS/MS-based NSD2 enzymatic assay (SAH production); format: biochemical; conditions: read-out: NSD2 IC50
In short: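 Full-length NSD2 [1-1365] (8 nM final) with 1 μM SAM and 400 nM mouse-liver nucleosome in Tris pH 8.0 buffer; inhibitor preincubated 20 min with enzyme/SAM before nucleosome addition. Reaction 90 min at room temperature, TFA-quenched; SAH quantified by LC-MS/MS against d4-SAH internal standard and SAH standard curve.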

[1] = system: cellular H3K36me2 level in multiple myeloma cell line KMS11 (t(4;14)+); assay: H3K36me2 cellular FRET assay in KMS11-Par line; format: cell-based; conditions: Homo sapiens, KMS-11, KMS11-Par line, cellular H3K36me2 level, FRET; read-out: H3K36me2 FRET in KMS11-Par
Procedure: H3K36Me2 Cellular FRET Assay in KMS11-Par Line
Fluorescence Resonance Energy Transfer (FRET) assay was used to test the ability of candidate compound to reduce cellular H3K36me2 level in multiple myeloma cell line KMS11 (t(4;14)+) (Horizon Discovery Ltd.).
Cells were treated with tested compounds at the desired concentration for 48 hours. […] Histone extract was incubated with Eu labeled anti-H3K36me2 antibody (abcam #ab ab9049) and d2 labeled anti-H3 antibody (abcam #ab1791) for 1 hour at room temperature. A Eu labeled anti-H3 antibody (CISBIO #64CUS000) was used for loading control. The abundancy of H3K36me2 or total H3 was measured by fluorescence signal on Perkin Elmer Envison machine.

[2] = system: cellular H3K36me2 level in thyroid carcinoma cell line CGTH-W-1 (NSD2 E1099K); assay: H3K36me2 cellular ELISA assay in CGTH-W-1 line; format: cell-based; conditions: Homo sapiens, CGTH-W-1, 72 h, read-out: H3K36me2 ELISA in CGTH-W-1
In short: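 CGTH-W-1 thyroid carcinoma cells (NSD2 E1099K gain-of-function) exposed to compound for 72 hours. Histone-bound plates probed for H3K36me2 and total H3 by chemiluminescent ELISA. Viability checked on a parallel plate with CellTiter-Glo.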

[3] = system: cellular H3K36me2 level in multiple myeloma cell line KMS11 (t(4;14)+); assay: H3K36me2 cellular ELISA assay in KMS11-Par line; format: cell-based; conditions: Homo sapiens, KMS-11; KMS11-Par line, ELISA, 72 hours; read-out: H3K36me2 ELISA in KMS11-Par
In short: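 KMS11 cells were seeded a day ahead at 1,250 per well in Opti-MEM with B-27/N2, then treated with compound for 72 h. Histones were acid-extracted with 0.4M HCl, and H3K36me2 and total H3 were read by chemiluminescent ELISA. Viability was checked with CellTiter-Glo on a parallel plate in maintenance media.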

[4] = NSD2 biochemical activity, class symbols

NSD2 [1-1365], sequence (O96028 whole entry): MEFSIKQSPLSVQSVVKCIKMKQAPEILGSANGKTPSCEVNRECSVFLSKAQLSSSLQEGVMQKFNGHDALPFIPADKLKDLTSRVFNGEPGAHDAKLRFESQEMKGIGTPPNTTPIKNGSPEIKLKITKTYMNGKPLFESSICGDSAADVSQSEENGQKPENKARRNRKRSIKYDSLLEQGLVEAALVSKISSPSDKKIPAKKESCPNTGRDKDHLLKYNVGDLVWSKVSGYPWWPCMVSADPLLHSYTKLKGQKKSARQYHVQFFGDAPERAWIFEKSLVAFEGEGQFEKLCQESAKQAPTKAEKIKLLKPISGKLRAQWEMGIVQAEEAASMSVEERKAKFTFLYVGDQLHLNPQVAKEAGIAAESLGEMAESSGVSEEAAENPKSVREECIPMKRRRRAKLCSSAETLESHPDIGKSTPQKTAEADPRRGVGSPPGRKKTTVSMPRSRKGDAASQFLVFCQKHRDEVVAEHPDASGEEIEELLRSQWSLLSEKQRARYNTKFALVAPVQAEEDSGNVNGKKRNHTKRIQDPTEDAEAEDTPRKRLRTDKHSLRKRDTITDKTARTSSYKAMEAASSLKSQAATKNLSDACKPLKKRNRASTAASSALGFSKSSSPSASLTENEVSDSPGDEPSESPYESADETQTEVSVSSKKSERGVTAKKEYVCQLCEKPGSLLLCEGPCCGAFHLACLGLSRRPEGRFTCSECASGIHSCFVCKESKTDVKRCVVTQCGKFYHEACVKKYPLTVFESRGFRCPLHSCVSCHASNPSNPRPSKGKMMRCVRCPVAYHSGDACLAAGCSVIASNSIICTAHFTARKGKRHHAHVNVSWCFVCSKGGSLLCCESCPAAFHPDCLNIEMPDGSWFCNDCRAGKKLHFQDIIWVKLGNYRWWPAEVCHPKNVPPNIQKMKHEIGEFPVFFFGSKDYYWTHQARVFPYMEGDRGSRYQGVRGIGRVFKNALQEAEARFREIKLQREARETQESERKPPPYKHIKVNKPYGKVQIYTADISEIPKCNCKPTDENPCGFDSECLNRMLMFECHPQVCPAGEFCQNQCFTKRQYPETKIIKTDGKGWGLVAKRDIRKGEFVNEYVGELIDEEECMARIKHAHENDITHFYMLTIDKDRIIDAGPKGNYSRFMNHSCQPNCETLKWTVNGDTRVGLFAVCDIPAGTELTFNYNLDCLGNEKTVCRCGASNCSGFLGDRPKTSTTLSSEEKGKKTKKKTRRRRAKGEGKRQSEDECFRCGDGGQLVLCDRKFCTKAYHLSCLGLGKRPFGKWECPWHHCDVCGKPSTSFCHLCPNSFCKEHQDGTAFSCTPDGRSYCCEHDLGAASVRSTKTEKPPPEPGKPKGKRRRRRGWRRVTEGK

Row | SMILES | IC50 (NSD2 [1-1365]; [4]) [µM] | IC50 [1] [µM] | IC50 (NSD2 [1-1365]) [µM] | IC50 [2] [µM] | IC50 [3] [µM]
1 | Nc1ncnc2c1ncn2Cc1cc(-c2ccccc2F)ncc1N1CC[C@@H](F)[C@@H](N)C1 [Example 2, 9-((5-((3S,4R)-3-amino-4-fluoropiperidin-1-yl)-2-(2-fluorophenyl)pyridin-4-yl)methyl)-9H-purin-6-amine] | 0.01 to 1 | 11.1 | – | – | –
2 | Nc1ncnc2c1ncn2Cc1cc(-c2cccc(F)c2)ncc1N1CCC[C@@H](N)C1 [Example 4, (R)-9-((5-(3-aminopiperidin-1-yl)-2-(3-fluorophenyl)pyridin-4-yl)methyl)-9H-purin-6-amine] | 0.01 to 1 | 4.12 | – | – | –
3 | COc1ccc(-c2cc(Cn3cnc4c(N)ncnc43)c(N3CCC[C@@H](N)C3)cn2)c(F)c1 [Example 6, (R)-9-((5-(3-aminopiperidin-1-yl)-2-(2-fluoro-4-methoxyphenyl)pyridin-4-yl)methyl)-9H-purin-6-amine] | 0.01 to 1 | 10 | – | – | –
4 | N#Cc1ccc(-c2cc(Cn3cnc4c(N)ncnc43)c(N3CCC[C@@H](N)C3)cn2)cc1Cl [Example 7, (R)-4-(4-((6-amino-9H-purin-9-yl)methyl)-5-(3-aminopiperidin-1-yl)pyridin-2-yl)-2-chlorobenzonitrile] | 0.01 to 1 | 15.1 | – | – | –
5 | Nc1ncnc2c1ncn2Cc1cc(-c2cccc(F)c2)ncc1N1CC[C@@H](F)[C@@H](N)C1 [Example 8, 9-((5-((3S,4R)-3-amino-4-fluoropiperidin-1-yl)-2-(3-fluorophenyl)pyridin-4-yl)methyl)-9H-purin-6-amine] | 0.01 to 1 | 5.26 | – | – | –
6 | COC[C@@H]1[C@H](N)CCCN1c1cnc(-c2ccc(C#N)c(F)c2)cc1Cn1cnc2c(N)ncnc21 [Example 9] | 0.01 to 1 | 9.9 | – | – | –
7 | COc1ccc(-c2cc(Cn3cnc4c(N)ncnc43)c(N3CC[C@@H](F)[C@@H](N)C3)cn2)c(F)c1 [Example 10, 9-((5-((3S,4R)-3-amino-4-fluoropiperidin-1-yl)-2-(2-fluoro-4-methoxyphenyl)pyridin-4-yl)methyl)-9H-purin-6-amine] | 0.01 to 1 | 7.63 | – | – | –
8 | COc1ccc(-c2cc(Cn3cnc4c(N)ncnc43)c(N3CCC[C@@H](N)C3)cn2)cc1 [Example 11, (R)-9-((5-(3-aminopiperidin-1-yl)-2-(4-methoxyphenyl)pyridin-4-yl)methyl)-9H-purin-6-amine] | 0.01 to 1 | 11.2 | – | – | –
9 | Nc1ncnc2c1ncn2Cc1cc(-c2cccc(Cl)c2)ncc1N1CC[C@@H](F)[C@@H](N)C1 [Example 12, 9-((5-((3S,4R)-3-amino-4-fluoropiperidin-1-yl)-2-(3-chlorophenyl)pyridin-4-yl)methyl)-9H-purin-6-amine] | 0.01 to 1 | 12.2 | – | – | –
10 | N#Cc1ccc(-c2cc(Cn3cnc4c(N)ncnc43)c(N3CC[C@@H](F)[C@@H](N)C3)cn2)cc1F [Example 13, 4-(5-((3S,4R)-3-amino-4-fluoropiperidin-1-yl)-4-((6-amino-9H-purin-9-yl)methyl)pyridin-2-yl)-2-fluorobenzonitrile] | 0.01 to 1 | 20.7 | – | – | –
11 | COc1ccc(-c2cc(Cn3cnc4c(N)ncnc43)c(N3CCC(OC)C(N)C3)cn2)cc1F (stereo not shown) [Example 15, 9-((5-(3-amino-4-methoxypiperidin-1-yl)-2-(3-fluoro-4-methoxyphenyl)pyridin-4-yl)methyl)-9H-purin-6-amine] | 0.01 to 1 | 18.7 | – | – | –
12 | Nc1ncnc2c1ncn2Cc1cc(-c2cccc(F)c2)ncc1N1CCC(F)(F)C(N)C1 (stereo not shown) [Example 17, 9-((5-(3-amino-4,4-difluoropiperidin-1-yl)-2-(3-fluorophenyl)pyridin-4-yl)methyl)-9H-purin-6-amine] | > 1 | 154 | – | – | –
13 | COc1ccc(-c2cc(Cn3cnc4c(N)ncc(Cl)c43)c(N3CCC[C@@H](N)C3)cn2)cc1F [Example 19, (R)-1-((5-(3-aminopiperidin-1-yl)-2-(3-fluoro-4-methoxyphenyl)pyridin-4-yl)methyl)-7-chloro-1H-imidazo[4,5-c]pyridin-4-amine] | 0.01 to 1 | 3.9 | – | – | –
14 | COc1ccc(-c2cc(Cn3cnc4c(N)ncnc43)c(N3CCC[C@@](C)(N)C3)cn2)cc1F [Example 20, (R)-9-((5-(3-amino-3-methylpiperidin-1-yl)-2-(3-fluoro-4-methoxyphenyl)pyridin-4-yl)methyl)-9H-purin-6-amine] | 0.01 to 1 | 2.95 | – | – | –
15 | COc1ccc(-c2cc(Cn3cnc4c(N)nccc43)c(N3CCC[C@@H](N)C3)cn2)cc1F [Example 21, (R)-1-((5-(3-aminopiperidin-1-yl)-2-(3-fluoro-4-methoxyphenyl)pyridin-4-yl)methyl)-1H-imidazo[4,5-c]pyridin-4-amine] | 0.01 to 1 | 20.8 | – | – | –
16 | Nc1ncnc2c1ncn2Cc1cc(-c2ccc(F)c(F)c2)ncc1N1CCC[C@](N)(COC2CC2)C1 [Example 22, (R)-9-((5-(3-amino-3-(cyclopropoxymethyl)piperidin-1-yl)-2-(3,4-difluorophenyl)pyridin-4-yl)methyl)-9H-purin-6-amine] | 0.001 to 0.01 | 0.214 | – | – | –
17 | COC[C@@]1(N)CCCN(c2cnc(-c3ccc(F)c(F)c3)cc2Cn2cnc3c(N)ncnc32)C1 [Example 23, (R)-9-((5-(3-amino-3-(methoxymethyl)piperidin-1-yl)-2-(3,4-difluorophenyl)pyridin-4-yl)methyl)-9H-purin-6-amine] | 0.001 to 0.01 | 0.16 | – | – | –
18 | C[C@H]1COC[C@@H]([C@@]2(N)CCCN(c3cnc(-c4ccc(F)c(F)c4)cc3Cn3cnc4c(N)ncnc43)C2)O1 [Example 288, 9-((5-((R)-3-amino-3-((2R,6S)-6-methyl-1,4-dioxan-2-yl)piperidin-1-yl)-2-(3,4-difluorophenyl)pyridin-4-yl)methyl)-9H-purin-6-amine] | – | – | 0.01 to 1 | 2.39 | 5.72
19 | Nc1ncnc2c1ncn2Cc1cc(-c2ccc(F)c(F)c2)ncc1N1CCC[C@](N)([C@@H]2COCCO2)C1 [Example 289, 9-((5-((R)-3-amino-3-((R)-1,4-dioxan-2-yl)piperidin-1-yl)-2-(3,4-difluorophenyl)pyridin-4-yl)methyl)-9H-purin-6-amine] | – | – | 0.001 to 0.01 | 0.492 | 2.67
20 | Nc1ncnc2c1ncn2Cc1cc(-c2cc(F)c(F)cc2F)ncc1N1CCC[C@](N)([C@@H]2COCCO2)C1 [Example 290, 9-((5-((R)-3-amino-3-((R)-1,4-dioxan-2-yl)piperidin-1-yl)-2-(2,4,5-trifluorophenyl)pyridin-4-yl)methyl)-9H-purin-6-amine] | – | – | 0.01 to 1 | 0.421 | 0.954
21 | Nc1ncnc2c1ncn2Cc1cc(-c2cc(F)c(F)cc2C(F)F)ncc1N1CCC[C@](N)([C@@H]2COCCO2)C1 [Example 291, 9-((5-((R)-3-amino-3-((R)-1,4-dioxan-2-yl)piperidin-1-yl)-2-(2-(difluoromethyl)-4,5-difluorophenyl)pyridin-4-yl)methyl)-9H-purin-6-amine] | – | – | 0.01 to 1 | 0.812 | 1.69
22 | CC(=C(F)F)[C@@]1(N)CCCN(c2cnc(-c3ccc(F)c(F)c3)cc2Cn2cnc3c(N)ncnc32)C1 [Example 293, (S)-9-((5-(3-amino-3-(1,1-difluoroprop-1-en-2-yl)piperidin-1-yl)-2-(3,4-difluorophenyl)pyridin-4-yl)methyl)-9H-purin-6-amine] | – | – | 0.01 to 1 | 1.3 | 3.21
23 | Nc1ncnc2c1ncn2Cc1cc(-c2ccc(F)c(F)c2)ncc1N1CCC[C@](N)([C@H](O)C(F)(F)F)C1 [Example 299, (S)-1-((R)-3-amino-1-(4-((6-amino-9H-purin-9-yl)methyl)-6-(3,4-difluorophenyl)pyridin-3-yl)piperidin-3-yl)-2,2,2-trifluoroethan-1-ol] | – | – | 0.01 to 1 | 1.16 | 9.83
24 | C#C[C@@]1(N)CCCN(c2cnc(-c3ccc(F)c(F)c3)cc2Cn2cnc3c(N)ncnc32)C1 [Example 304, (S)-9-((5-(3-amino-3-ethynylpiperidin-1-yl)-2-(3,4-difluorophenyl)pyridin-4-yl)methyl)-9H-purin-6-amine] | – | – | 0.01 to 1 | 0.101 | 0.592
25 | COc1ccc(-c2cc(Cn3cnc4c(N)ncnc43)c(N3CCC[C@](N)(C(F)F)C3)cn2)cc1F [Example 305, (R)-9-((5-(3-amino-3-(difluoromethyl)piperidin-1-yl)-2-(3-fluoro-4-methoxyphenyl)pyridin-4-yl)methyl)-9H-purin-6-amine] | – | – | 0.01 to 1 | 3.4 | 4.8

From patent US11420970B1 (NOVARTIS AG, priority 2019, dated 2022)
